Measured values taken from patent US4223016A, “Peptides” (Beecham Group Limited, priority 1977, dated 1980).
Where a SMILES comes first, the peptide text is derived from it. Where no end group is shown, it is not given here.

Legend:
Rat Skin = assay: Skin test, intradermal titration in rat skin in vivo; details: read 20 minutes after intradermal challenge
Procedure: (§1) Skin tests were carried out in the shaved backs of animals (rats and baboons) immediately after intravenous injection of pontamine sky blue (5%) in aqueous sodium chloride solution (0.9%) at a dose of 0.1 ml per kilogram of body weight in the case of rats and 5 ml per animal in the case of baboons.
(§2) Peptide in aqueous sodium chloride solution (0.9%), or saline control, were injected intradernally in 0.05 ml or 0.10 ml volumes. Skin reactions were read 20 minutes after intradernal challenge.

Baboon Skin = assay: Skin test, intradermal titration in baboon skin in vivo; details: for ACTIVITY: average concentration of peptide to give an end point in intradernal titrations in baboon skin: read 20 minutes after intradermal challenge
Procedure: as §1, §2

[1] = system: Rat Peritoneal Mast Cells; assay: Cr^51 and lactic dehydrogenase (LDH) release from rat peritoneal mast cells; type: cell-based; details: Rat Mast Cells in vitro
Excerpt: (§3) (a) (1) Histamine, (2) Cr^51 and (3) Lactic Dehydrogenase Release from Rat Peritoneal Mast Cells (Rat Mast Cell in vitro test)
(§4) Mast cells, derived from the peritoneal washings of three male, outbred Wistar rates (250-300 g), were purified by the procedure according to Cooper and Stanworth (Preparative biochem. 4(2), 105, 1975).
(§5) The purified cells were washed twice in Dulbecco's incomplete (i.e. free from mineral salts) buffer and then resuspended in Dulbecco's medium to the required volume. In a typical experiment, sufficient cells were available for 30 duplicate challenges, i.e. 60 samples and in this case the resuspension volume employed was 6.1 mls. 0.1 ml of cell suspension were taken for estimating the cell count.
One third of the cell suspension was employed. […] Activity present in the whole recovered supernatants was measured using a Tracer Laboratory Spectromatic γ counter. The percentage of Cr^51 released was assessed in relation to the values obtained for the positive and negative control solutions.
One third of the cell suspension was employed. […] The solutions were incubated at ambient temperature for 20 minutes and the fluorescence emission was then measured. […] The LDH activity was assessed in terms of the increase of fluorescence over control due to NADH formation following lactate addition. […]

[2] = system: Rat Peritoneal Mast Cells; assay: Histamine release from rat peritoneal mast cells (Rat Mast Cell in vitro test); type: cell-based; details: for EC50: average of a number of experiments, read-out: ACTIVITY: average concentration of peptide to give approximately 50% release of available histamine from rat mast cells
Excerpt: as §3, §4, §5
One third of the cell suspension was employed. To 0.9 ml duplicate aliquots of challenge solution, prepared in complete Dulbecco's medium and prewarmed to 37° C., was added 0.1 ml of cell suspension. The solutions were then shaken gently, and allowed to incubate for 5 minutes at 37° C. The reaction tubes were then quickly removed from the incubator and placed in an ice bath. Supernatants were then seqparated from the cell population following centrifugation for 3 minutes at 1000 r.p.m. The cell residues were then treated with 2 mls of 0.4 N perchloric acid and allowed to stand for approximately 30 minutes at ambient temperature. The precipitated protein was removed by centrifugation and the supernatant solutions set aside for histamine analysis. The original supernatant solutions were treated with 1.0 ml of 0.8 N perchlorate and then treated in a similar manner to the cell residues. Histamine was measured by the method according to Evans, Lewis and Thompson (Life Sciences, 12, 327, 1973) using a Technicon Auto-analyser. Histamine release was calculated as a percentage of total histamine available in each challenge solution.

[3] = system: peritoneal mast cells of ovalbumen-immunised Brown Norway rats; assay: Cross desensitisation between antigen and peptide in the in vitro rat mast cell system; type: cell-based
Procedure: (c) Cross Desensitisation in the vitro rat mast cell system between antigen and peptide
Brown Norway rats were immunised intraperitoneally with 100 μg of ovalbumen (XOA) in lmg `alum`. On day 27, peritoneal mast cells were removed, bulked and washed. Aliquots of cells were desensitised by the addition of 4×5 minute incubations with various XOA or peptide concentrations or buffer alone. The cells were then submitted to an optimal histamine releasing challenge of peptide, XOA, or challenged with buffer alone.

[4] = cells desensitised with the substance in 4 rising steps (BRL 21547 5 × 10^-8 to 10^-6 M; XOA 0.005 to 0.1 μg/ml), challenge Buffer
[5] = cells desensitised with the substance in 4 rising steps, challenge BRL 21547 (10^-5 M)
[6] = cells desensitised with the substance in 4 rising steps, challenge XOA lμg/ml
[7] = desensitisation steps 1-4 Buffer, challenge with the substance (BRL 21547 10^-5 M; XOA lμg/ml)

Compound | ACTIVITY: average concentration of peptide to give an end point in intradernal titrations in rat skin (Rat Skin) | ACTIVITY: average concentration of peptide to give an end point in intradernal titrations in baboon skin (Baboon Skin) | LDH/^51 Cr Release ([1]; at 10^-6 M) | EC50 [2] | Inhibition of Activity ([2]; inhibition of the peptide's histamine release by Intal (10^-4)) | Inhibition of Activity (Baboon Skin; by Antihistamine or Intal-like drug) | cross-desensitisation in rat mast cells in vitro between peptide and antigen (in words) [3] | Total average % histamine release [3, 4] | Total average % histamine release [3, 5] | Total average % histamine release [3, 6] | Total average % histamine release [3, 7] | LDH/^51 Cr Release ([1]; at 10^-4 M peptide)
COC(=O)[C@H](Cc1ccccc1)NC(=O)[C@H](Cc1ccccc1)NC(=O)CNC(=O)[C@H](CO)NC(=O)CNC(=O)[C@H](CCCCN)NC(=O)[C@@H](NC(=O)[C@@H](N)CCCCN)[C@@H](C)O [Example No. 1, LysThrLysGlySerGlyPhePheOMe] (H-KTKGSGFF-OMe) | 100 µM | 500 nM | None | 7.5 µM | 50% | – | – | – | – | – | – | –
KTKGSGFFVF-OH [Example No. 4, LysThrLysGlySerGlyPhePheValPheOH] | 100 µM | 10000 nM | – | 33 µM | – | – | – | – | – | – | – | –
COC(=O)[C@H](Cc1ccccc1)NC(=O)[C@H](Cc1ccccc1)NC(=O)CNC(=O)[C@H](CO)NC(=O)CNC(=O)[C@H](CCCCN)NC(=O)[C@@H](NC(=O)[C@H](CCCCN)NC(=O)[C@H](CCCNC(=N)N)NC(=O)[C@@H]1CCCN1)[C@@H](C)O [Example No. 5, ProArgLysThrLysGlySerGlyPhePheOMe] (H-PRKTKGSGFF-OMe) | 100 µM | 100 nM | – | 9.2 µM | – | – | – | – | – | – | – | –
COC(=O)[C@H](Cc1ccccc1)NC(=O)[C@@H](NC(=O)[C@H](Cc1ccccc1)NC(=O)[C@H](Cc1ccccc1)NC(=O)CNC(=O)[C@H](CO)NC(=O)CNC(=O)[C@H](CCCCN)NC(=O)[C@@H](NC(=O)[C@@H](N)CCCCN)[C@@H](C)O)C(C)C [Example No. 3, LysThrLysGlySerGlyPhePheValPheOMe] (H-KTKGSGFFVF-OMe) | 10 µM | 10 nM | – | 1 µM | – | Partial | cross-desensitisation | 6% | 6% | 17% | 47% | None
KTKGSGFF-OH [Example No. 6, LysThrLysGlySerGlyPhePheOH] | 100 µM | 10000 nM | – | 10 µM | – | – | – | – | – | – | – | –
COC(=O)[C@H](Cc1ccccc1)NC(=O)[C@H](Cc1ccccc1)NC(=O)CNC(=O)[C@H](CO)NC(=O)CNC(=O)[C@H](CCCCN)NC(=O)[C@@H](NC(=O)[C@H](CCCCN)NC(=O)[C@@H](N)CCCNC(=N)N)[C@@H](C)O [Example No. 2, ArgLysThrLysGlySerGlyPhePheOMe] (H-RKTKGSGFF-OMe) | 100 µM | 100 nM | – | 0.15 µM | – | – | – | – | – | – | – | –
XOA: ovalbumen (XOA), the antigen used to immunise Brown Norway rats and to challenge or desensitise their mast cells [reference compound] | – | – | – | – | – | – | – | 6% | 6% | 6% | 56% | –
